Entries after “also recorded” stand apart in the source; their conditions may differ.
Experiments:
[1] = tested on: TLR8-mediated TNF-α production in PBMC cells; assay: R848-induced TNF-α secretion in PBMCs; assay type: cell-based, human; conditions: 1 μg/mL R848; dose-dependent; 4a at 50 μM
From the text: Peripheral blood mononuclear cells (PBMCs) include lymphocytes (T cells, B cells, and NK cells), monocytes, and dendritic cells expressing various TLRs. TLR7 and TLR8 are both expressed on B cells and monocytes, while DC plasmacytoids (DCps) express only TLR7 and immature DCs (DC11c^+) express only TLR8.

[2] = tested on: TLR8-mediated TNF-α and IL-8 mRNA; assay: RT-PCR of TNF-α and IL-8 mRNA in R848 treated HEK-Blue TLR8 cells; assay type: cell-based, human; conditions: negative control, 10 μM
From the text: R848-induced TLR8 activation results in increased production of the proinflammatory cytokines, such as TNF-α, IL-6 and IL-8.

[3] = tested on: TNF-α production in PBMCs from RA patients; assay: TNF-α level in PBMCs harvested from RA patients; assay type: cell-based, human; conditions: negative control, up to 80 μM
[4] = molecular target: T1, human TLR8 (Homo sapiens, UniProt Q9NR97); assay: SEAP reporter assay in HEK-Blue TLR8 cells, R848-induced TLR8 signaling; assay type: cell-based; conditions: for inhibitory activity against TLR8 signaling: up to 20 μM
T1 construct: expressed in transfected cells; host or cells: HEK-Blue Null1 cells, lentiviral infection
T1 sequence (Q9NR97 27-1041): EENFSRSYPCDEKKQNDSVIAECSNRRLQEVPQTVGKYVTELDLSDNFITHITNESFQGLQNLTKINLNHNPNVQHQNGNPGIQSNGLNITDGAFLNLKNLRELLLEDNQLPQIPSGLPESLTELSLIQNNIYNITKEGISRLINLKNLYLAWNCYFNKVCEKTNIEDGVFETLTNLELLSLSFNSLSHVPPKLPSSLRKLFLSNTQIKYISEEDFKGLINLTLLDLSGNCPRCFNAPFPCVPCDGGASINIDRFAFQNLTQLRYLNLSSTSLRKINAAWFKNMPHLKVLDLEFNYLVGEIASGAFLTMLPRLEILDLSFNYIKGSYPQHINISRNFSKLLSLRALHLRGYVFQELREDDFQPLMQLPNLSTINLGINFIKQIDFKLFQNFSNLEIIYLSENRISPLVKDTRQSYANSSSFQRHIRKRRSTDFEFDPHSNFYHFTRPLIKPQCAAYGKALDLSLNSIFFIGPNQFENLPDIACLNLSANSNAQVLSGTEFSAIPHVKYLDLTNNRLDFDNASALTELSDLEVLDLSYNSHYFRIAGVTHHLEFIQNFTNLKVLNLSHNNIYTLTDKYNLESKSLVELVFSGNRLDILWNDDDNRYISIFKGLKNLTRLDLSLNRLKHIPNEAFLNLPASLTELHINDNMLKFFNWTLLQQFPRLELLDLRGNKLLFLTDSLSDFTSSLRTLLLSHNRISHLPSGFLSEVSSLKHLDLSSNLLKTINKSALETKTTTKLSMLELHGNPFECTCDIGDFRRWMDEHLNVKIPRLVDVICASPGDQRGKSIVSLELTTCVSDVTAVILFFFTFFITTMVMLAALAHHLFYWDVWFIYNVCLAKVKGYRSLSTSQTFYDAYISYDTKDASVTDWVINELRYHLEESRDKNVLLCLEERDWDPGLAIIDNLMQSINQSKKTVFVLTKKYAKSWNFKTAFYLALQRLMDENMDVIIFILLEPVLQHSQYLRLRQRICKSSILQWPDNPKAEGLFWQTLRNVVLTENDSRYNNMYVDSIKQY
Protocol: SEAP reporter assay: HEK-Blue TLR8 cells were seeded in tissue culture treated 96-well plates with a density of 7.5×10^4 cells/well in DMEM media supplemented with 10% FBS (phosphatases deactivated with heat). […] Plates are then incubated in humidified incubators containing 5% CO2 at 37° C. for 24 h, after which, 30 μL of culture media was transfer to a new plate and 100 μL of Quanti-Blue (Invivogen) was added, the plate was then incubated at 37° C. till color change (30 min-1 h). Readout of absorbance at 620 nm was quantified using Beckman-Coulter DTX 880 Multimode Detector. […] SEAP assays for each sample were conducted with three biological replicates, each in triplicate.
To establish a robust high throughput assay for TLR8 inhibitors, the inventors first engineered a cell line stably overexpressing the human TLR8 whose activation can be reported by the Secreted Embryonic Alkaline Phosphatase (SEAP) assay. TLR8-overexpresing HEK-Blue cells were prepared by lentiviral infection of HEK-Blue Null1 cells that have null or low basal expression of endogenous TLR genes. […] The TLR8-mediated NF-κB activation can be assessed by measuring the SEAP activity.

[5] = tested on: TLR8-mediated TNF-α production in THP-1 cells; assay: R848-induced TNF-α production in differentiated THP-1 monocytes; assay type: cell-based, human; conditions: 10 μM
[6] = tested on: TNF-α production in PBMCs from an AOSD patient; assay: TNF-α level in PBMCs harvested from an AOSD patient; assay type: cell-based, human; conditions: negative control, 40 μM
Protocol: But there is a lack of appropriate rodent models because TLR8 is not functional in either mice or rats. Therefore, the TLR8 inhibitors of this disclosure were tested in human specimens harvested from patients with osteoarthritis (OA), rheumatoid arthritis (RA), and adult onset-Still's disease (AOSD). It is well established that TNF-α and IL-1β are key cytokines in the process of chronic joint inflammation in cartilage. Therefore, synovial cells were isolated from synovial tissue of patients who underwent joint replacement surgery due to severe OA. Previous studies have indicated these pathological tissues express both TLR7 and TLR8 with elevated production of various cytokines, contributing to extensive articular destruction and functional decline.

[7] = 1(2H)-phthalazinone and quinoline derivatives in HEK-Blue hTLR8 cells
[8] = pyrazolo[1,5-a]pyrimidine derivatives in HEK-Blue hTLR8 cells, ± SD, at least three biological replicates

IC50 [4, 7] [nM] | SMILES | other results
 | O=C(O)c1cnn2c(-c3cccc(C(F)(F)F)c3)ccnc12 [Compound 4a] | R848-induced TNF-α secretion of PBMCs [1]: not; inhibition of R848-induced TNF-α and IL-8 mRNA levels [2]: negligible inhibition; inhibition of TNF-α level in PBMCs from RA patients [3]: did not show significant inhibition; also recorded: did not show notable inhibitory activity; inhibitory activity against TLR8 signaling [4]: did not show any inhibitory activity; inhibition of R848-induced TNF-α production [5]: failed to show significant inhibition; inhibitory activity on TNF-α level in PBMCs from an AOSD patient [6]: did not show notable inhibitory activity
> 20000 | Cc1cc(-c2n[nH]c(=O)c3ccccc23)cc(C)c1C(=O)O [Compound 13, 4-(4-Carboxylic-3,5-dimethylphenyl)-1(2H)-phthalazinone] | 
 | Cc1cc(-c2ccnc3ccccc23)cc(C)c1O [Compound 36, 4-(3,5-Dimethyl-4-Hydroxyphenyl)quinoline] | IC50 ([4]; same column as E3, cell prints (nM), HEK-Blue hTLR8 cells): 25.5 ± 10.7 nM
> 20000 | Cc1cc(-c2cccc3ccccc23)ccc1O [Compound 43, 1-(4-Hydroxy-3-methylphenyl)naphthalene] | 
> 20000 | Cc1cc(-c2n[nH]c(=O)c3ccccc23)ccc1C(=O)O [Compound 14, 4-(4-Carboxylic-3-methylphenyl)-1(2H)-phthalazinone] | 
> 20000 | O=c1[nH]nc(-c2ccccc2)c2ccccc12 [Compound 5, 4-Phenyl-1(2H)-phthalazinone] | 
1220 ± 100 | Cc1cc(-c2cccc3ccccc23)cc(C)c1O [Compound 42, 1-(4-Hydroxy-3,5-dimethylphenyl)naphthalene] | 
3910 ± 200 | Cc1cc(-c2n[nH]c(=O)c3ccccc23)cc(C)c1O [Compound 20, 4-(4-Hydroxy-3,5-dimethylphenyl)-1(2H)-phthalazinone] | 
> 20000 | COc1ccc(-c2n[nH]c(=O)c3ccccc23)cc1 [Compound 9, 4-(4-Methoxyphenyl)-1(2H)-phthalazinone] | 
7030 ± 360 | COc1ccc(-c2ccc(O)c(C)c2)c2ccccc12 [Compound 1, 1-Methoxy-4-(4-hydroxy-3-methylphenyl)-naphthalene] | 
 | COc1cccc(-c2ccnc3c(C(N)=O)cnn23)c1 [Compound 6k] | IC50 [4, 8]: 1200 nM
2730 ± 850 | CCc1cc(-c2n[nH]c(=O)c3ccccc23)ccc1O [Compound 22, 4-(4-Hydroxy-3-ethylphenyl)-1(2H)-phthalazinone] | 
> 20000 | Cc1cc(-c2n[nH]c3ccccc23)ccc1O [Compound 48, 3-(4-Hydroxy-3-methylphenyl)-1H-indazole] | 
 | CCc1cccc(-c2ccnc3c(C(N)=O)cnn23)c1 [Compound 6m] | IC50 [4, 8]: 120 ± 23 nM
 | CCOC(=O)c1cnn2c(-c3cccc(C)c3)ccnc12 [Compound 3b] | IC50 [4, 8]: 92 ± 15 nM
> 20000 | CC(C)c1cc(-c2n[nH]c(=O)c3ccccc23)cc(C(C)C)c1O [Compound 23, 4-(4-Hydroxy-3,5-diisopropylphenyl)-1(2H)-phthalazinone] | 
> 20000 | Cc1cc(-c2n[nH]c(=O)c3ccccc23)cc(C)c1N [Compound 15] | 
> 20000 | Cc1cc(-c2n[nH]c(=O)c3cccc(C)c23)ccc1O [Compound 34, 4-(4-Hydroxy-3-methylphenyl)-5-methyl-1(2H)-phthalazinone] | 
> 20000 | O=c1c2ccccc2c(-c2ccccc2)nn1-c1ccccc1 [Compound 33, 2,4-Diphenyl-1(2H)-phthalazinone] | 
 | Cc1cccc(-c2ccnc3c(C(=O)O)cnn23)c1 [Compound 4b] | inhibitory activity against TLR8 signaling [4]: did not show any inhibitory activity

SMILES | IC50 [4, 7] [nM] | other results
Cc1cc(-c2cn(C(=O)OC(C)(C)C)c3ccccc23)ccc1O [Compound 46, N-tert-butoxycarbonyl-3-(4-Hydroxy-3-methylphenyl)-indole] | > 20000 | 
Cc1cc(-c2c[nH]c3ccccc23)ccc1O [Compound 47, 3-(4-Hydroxy-3-methylphenyl)-indole] | 2800 ± 690 | 
